This passage reports Ki results from patent US7250442B2, “Dihydroindol-2-one derivatives as steroid hormone nuclear receptor modulators” (Eli Lilly and Company, priority 2003, dated 2007).

Some results are limits rather than exact numbers.

In this assay the target is T1, glucocorticoid receptor (Homo sapiens, UniProt P04150).
T1 construct: host or cells: A549 human lung epithelial cells (sonicated cell extract)
T1 sequence (P04150 1-777): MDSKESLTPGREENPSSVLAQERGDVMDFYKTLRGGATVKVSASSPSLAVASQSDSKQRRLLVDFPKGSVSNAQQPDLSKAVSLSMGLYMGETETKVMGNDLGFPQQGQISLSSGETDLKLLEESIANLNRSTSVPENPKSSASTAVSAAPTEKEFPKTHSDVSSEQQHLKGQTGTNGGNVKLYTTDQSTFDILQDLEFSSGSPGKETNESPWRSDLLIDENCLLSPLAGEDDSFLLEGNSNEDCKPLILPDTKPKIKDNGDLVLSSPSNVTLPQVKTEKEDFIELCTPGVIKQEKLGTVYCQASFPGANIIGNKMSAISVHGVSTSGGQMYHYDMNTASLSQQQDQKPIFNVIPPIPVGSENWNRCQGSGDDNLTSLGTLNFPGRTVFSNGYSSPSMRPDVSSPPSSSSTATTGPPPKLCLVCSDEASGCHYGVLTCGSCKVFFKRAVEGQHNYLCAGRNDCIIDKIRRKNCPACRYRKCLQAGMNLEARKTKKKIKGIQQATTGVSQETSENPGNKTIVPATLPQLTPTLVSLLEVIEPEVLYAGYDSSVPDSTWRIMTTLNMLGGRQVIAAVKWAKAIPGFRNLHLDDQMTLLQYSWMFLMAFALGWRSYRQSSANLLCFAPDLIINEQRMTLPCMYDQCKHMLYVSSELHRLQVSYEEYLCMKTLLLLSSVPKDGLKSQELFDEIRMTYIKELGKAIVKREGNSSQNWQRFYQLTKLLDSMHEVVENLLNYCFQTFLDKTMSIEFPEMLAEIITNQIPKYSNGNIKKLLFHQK
The experiment in a line: Glucocorticoid Receptor Binding Assay ([3H]-dexamethasone displacement, A549 cell extract). The settings on record: A549 human lung epithelial cell extract, 1.86 nM [3H]-dexamethasone; read-out: GR Ki. In a few lines: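 A549 cell extract (50-200 ug; buffer 50 mM Tris-HCl pH 7.2 with glycerol, NaCl, MgCl2, EDTA, 10 mM molybdate) incubated with 1.86 nM [3H]-dexamethasone and test compound, 16 h at 4 °C. Unbound ligand removed with dextran-coated charcoal; bound radioactivity counted. IC50 converted to Ki via Cheng-Prusoff.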
Usually Ki stands for a dissociation constant, usually derived from enzyme kinetics or from competition with a known ligand. On to `Cc1ccc2c(c1)C(c1cc(C)c(O)c(C)c1)(c1cc(C)c(O)c(C)c1)C(=O)N2Cc1csc(C)n1` [Example 93, 3,3-Bis-(4-hydroxy-3,5-dimethyl-phenyl)-5-methyl-1-(2-methyl-thiazol-4-ylmethyl)-1,3-dihydro-indol-2-one], for which the Ki was ≤ 10000 nM.
To `Cc1cc(C2(c3cc(C)c(O)c(C)c3)C(=O)N(Cc3ccc(Br)cc3F)c3ccccc32)cc(C)c1O` [Example 81, 1-(4-Bromo-2-fluoro-benzyl)-3,3-bis-(4-hydroxy-3,5-dimethyl-phenyl)-1,3-dihydro-indol-2-one] belongs ≤ 500 nM; to `Cc1cc(C2(c3ccc(O)cc3)C(=O)N(Cc3ccccc3)c3ccccc32)cc(C)c1O` (stereo not drawn) [Example 29, 1-Benzyl-3-(4-hydroxy-3,5-dimethyl-phenyl)-3-(4-hydroxy-phenyl)-1,3-dihydro-indol-2-one], ≤ 500 nM; to `Cc1cc(C2(c3cc(C)c(O)c(C)c3)C(=O)N(Cc3cccc(Cl)c3)c3ccccc32)cc(C)c1O` [Example 60, 1-(3-Chloro-benzyl)-3,3-bis-(4-hydroxy-3,5-dimethyl-phenyl)-1,3-dihydro-indol-2-one], ≤ 500 nM.
To `COc1ccccc1C(=O)CN1C(=O)C(c2cc(C)c(O)c(C)c2)(c2cc(C)c(O)c(C)c2)c2ccccc21` [Example 44, 3,3-Bis-(4-hydroxy-3,5-dimethyl-phenyl)-1-[2-(2-methoxy-phenyl)-2-oxo-ethyl]-1,3-dihydro-indol-2-one] belongs ≤ 500 nM; to `Cc1cc(C2(c3cc(C)c(O)c(C)c3)C(=O)N(c3cccnc3)c3ccccc32)cc(C)c1O` [Example 135, 3,3-Bis-(4-hydroxy-3,5-dimethyl-phenyl)-1-pyridin-3-yl-1,3-dihydro-indol-2-one], ≤ 500 nM; to `COc1cccc(N2C(=O)C(c3cc(C)c(O)c(C)c3)(c3cc(C)c(O)c(C)c3)c3ccccc32)c1` [Example 134, 3,3-Bis-(4-hydroxy-3,5-dimethyl-phenyl)-1-(3-methoxy-phenyl)-1,3-dihydro-indol-2-one], ≤ 500 nM.
The figure for `Cc1cc(C2(c3cc(C)c(O)c(C)c3)C(=O)N(Cc3cccc4ccccc34)c3ccccc32)cc(C)c1O` [Example 10, 3,3-Bis-(4-hydroxy-3,5-dimethyl-phenyl)-1-naphthalen-1-ylmethyl-1,3-dihydro-indol-2-one] is ≤ 10000 nM; for `Cc1cc(C2(c3cc(C)c(O)c(C)c3)C(=O)N(Cc3cc(C(F)(F)F)ccc3F)c3ccccc32)cc(C)c1O` [Example 112, 1-(2-Fluoro-5-trifluoromethyl-benzyl)-3,3-bis-(4-hydroxy-3,5-dimethyl-phenyl)-1,3-dihydro-indol-2-one] it is ≤ 500 nM.
Consider `Cc1cc(C2(c3cc(C)c(O)c(C)c3)C(=O)N(Cc3c(C)cccc3C)c3ccccc32)cc(C)c1O` [Example 107, 1-(2,6-Dimethyl-benzyl)-3,3-bis-(4-hydroxy-3,5-dimethyl-phenyl)-1,3-dihydro-indol-2-one], for which the Ki is ≤ 500 nM.
The figure for `COc1ccc2c(c1)C(c1cc(C)c(O)c(C)c1)(c1cc(C)c(O)c(C)c1)C(=O)N2Cc1ccccc1` [Example 16, 1-Benzyl-3,3-bis-(4-hydroxy-3,5-dimethyl-phenyl)-5-methoxy-1,3-dihydro-indol-2-one] is ≤ 500 nM; for `Cc1cc(C2(c3cc(C)c(O)c(C)c3)C(=O)N(Cc3ccc(C(F)(F)F)cc3)c3ccccc32)cc(C)c1O` [Example 57, 3,3-Bis-(4-hydroxy-3,5-dimethyl-phenyl)-1-(4-trifluoromethyl-benzyl)-1,3-dihydro-indol-2-one] it is ≤ 500 nM.
The figure for `Cc1cc(C2(c3cc(C)c(O)c(C)c3)C(=O)N(Cc3cccc(C(F)(F)F)c3)c3ccccc32)cc(C)c1O` [Example 61, 3,3-Bis-(4-hydroxy-3,5-dimethyl-phenyl)-1-(3-trifluoromethyl-benzyl)-1,3-dihydro-indol-2-one] is ≤ 500 nM; for `Cc1nc(CN2C(=O)C(c3cc(C)c(O)c(C)c3)(c3cc(C)c(O)c(C)c3)c3ccccc32)cs1` [Example 89, 3,3-Bis-(4-hydroxy-3,5-dimethyl-phenyl)-1-(2-methyl-thiazol-4-ylmethyl)-1,3-dihydro-indol-2-one] it is ≤ 1000 nM; for `COc1ccc(N2C(=O)C(c3cc(C)c(O)c(C)c3)(c3cc(C)c(O)c(C)c3)c3ccccc32)cc1` [Example 128, 3,3-Bis-(4-hydroxy-3,5-dimethyl-phenyl)-1-(4-methoxy-phenyl)-1,3-dihydro-indol-2-one] it is ≤ 500 nM.
Regarding `Cc1cc(C2(c3cc(C)c(O)c(C)c3)C(=O)N(CCc3scnc3C)c3ccccc32)cc(C)c1O` [Example 121, 3,3-Bis-(4-hydroxy-3,5-dimethyl-phenyl)-1-[2-(4-methyl-thiazol-5-yl)-ethyl]-1,3-dihydro-indol-2-one], the Ki is ≤ 500 nM.
To `Cc1cc(C2(c3cc(C)c(O)c(C)c3)C(=O)N(Cc3cccc(N)c3)c3ccccc32)cc(C)c1O` [Example 118, 1-(3-Amino-benzyl)-3,3-bis-(4-hydroxy-3,5-dimethyl-phenyl)-1,3-dihydro-indol-2-one] belongs ≤ 500 nM; to `COC(=O)c1cccc(CN2C(=O)C(c3cc(C)c(O)c(C)c3)(c3cc(C)c(O)c(C)c3)c3ccccc32)c1` [Example 55, 3-[3,3-Bis-(4-hydroxy-3,5-dimethyl-phenyl)-2-oxo-2,3-dihydro-indol-1-ylmethyl]-benzoic acid methyl ester], ≤ 500 nM.
Take `COc1ccc(OC)c(C(=O)CN2C(=O)C(c3cc(C)c(O)c(C)c3)(c3cc(C)c(O)c(C)c3)c3ccccc32)c1` [Example 49, 1-[2-(2,5-Dimethoxy-phenyl)-2-oxo-ethyl]-3,3-bis-(4-hydroxy-3,5-dimethyl-phenyl)-1,3-dihydro-indol-2-one]: the Ki is ≤ 500 nM.
To `Cc1cc(C2(c3cc(C)c(O)c(C)c3)C(=O)N(c3cccc(Br)c3)c3ccccc32)cc(C)c1O` [Example 139, 1-(3-Bromo-phenyl)-3,3-bis-(4-hydroxy-3,5-dimethyl-phenyl)-1,3-dihydro-indol-2-one] belongs ≤ 500 nM; to `Cc1cc(C2(c3cc(C)c(O)c(C)c3)C(=O)N(Cc3ccccc3C#N)c3ccccc32)cc(C)c1O` [Example 51, 2-[3,3-Bis-(4-hydroxy-3,5-dimethyl-phenyl)-2-oxo-2,3-dihydro-indol-1-ylmethyl]-benzonitrile], ≤ 500 nM; to `Cc1cc(C2(c3cc(C)c(O)c(C)c3)C(=O)N(Cc3ccc(N)cc3)c3ccccc32)cc(C)c1O` [Example 117, 11-(4-Amino-benzyl)-3,3-bis-(4-hydroxy-3,5-dimethyl-phenyl)-1,3-dihydro-indol-2-one], ≤ 500 nM.
For `Cc1cc(C2(c3cc(C)c(O)c(C)c3)C(=O)N(Cc3ccccn3)c3ccccc32)cc(C)c1O` [Example 100, 3,3-Bis-(4-hydroxy-3,5-dimethyl-phenyl)-1-pyridin-2-ylmethyl-1,3-dihydro-indol-2-one], the Ki was ≤ 500 nM.
Turning to `Cc1cc(C2(c3cc(C)c(O)c(C)c3)C(=O)N(Cc3ccc(Cl)c(Cl)c3)c3ccccc32)cc(C)c1O` [Example 52, 1-(3,4-Dichloro-benzyl)-3,3-bis-(4-hydroxy-3,5-dimethyl-phenyl)-1,3-dihydro-indol-2-one], the Ki was ≤ 500 nM.
Turning to `Cc1cc(C2(c3cc(C)c(O)c(C)c3)C(=O)N(Cc3ccc(F)cc3)c3ccccc32)cc(C)c1O` [Example 2], the Ki is ≤ 500 nM.
Consider `Cc1cc(C2(c3cc(C)c(O)c(C)c3)C(=O)N(CC3CC3)c3ccccc32)cc(C)c1O` [Example 105, 1-Cyclopropylmethyl-3,3-bis-(4-hydroxy-3,5-dimethyl-phenyl)-1,3-dihydro-indol-2-one], for which the Ki was ≤ 500 nM.
To `Cc1cc(C2(c3cc(C)c(O)c(C)c3)C(=O)N(Cc3ccc(O)cc3)c3ccccc32)cc(C)c1O` [Example 88, 1-(4-Hydroxy-benzyl)-3,3-bis-(4-hydroxy-3,5-dimethyl-phenyl)-1,3-dihydro-indol-2-one] belongs ≤ 500 nM; to `Cc1cc(C2(c3cc(C)c(O)c(C)c3)C(=O)N(C3CCCC3)c3ccccc32)cc(C)c1O` [Example 114, 1-Cyclopentyl-3,3-bis-(4-hydroxy-3,5-dimethyl-phenyl)-1,3-dihydro-indol-2-one], ≤ 500 nM.
To `Cc1cc(C2(c3cc(C)c(O)c(C)c3)C(=O)N(Cc3ccc(C(C)(C)C)cc3)c3ccccc32)cc(C)c1O` [Example 7, 1-(4-tert-Butyl-benzyl)-3,3-bis-(4-hydroxy-3,5-dimethyl-phenyl)-1,3-dihydro-indol-2-one] belongs ≤ 1000 nM.
The figure for `COc1ccc(C(=O)CN2C(=O)C(c3cc(C)c(O)c(C)c3)(c3cc(C)c(O)c(C)c3)c3ccccc32)cc1` [Example 46, 3,3-Bis-(4-hydroxy-3,5-dimethyl-phenyl)-1-[2-(4-methoxy-phenyl)-2-oxo-ethyl]-1,3-dihydro-indol-2-one] is ≤ 500 nM.
